Source: the kinase profiling compilation of Christmann-Franck et al. (2016)

Assays:
Assay in all cases: radiometric filter-binding kinase assay, Kinase HotSpot
Conditions in all cases: compound 0.5 µM; ATP 10 µM
[1] = molecular target: ACVR1 (human) (UniProt Q04771)
[2] = molecular target: ADRBK1 (human) (UniProt P25098)
[3] = molecular target: AKT3 (human) (UniProt Q9Y243)
[4] = molecular target: ALK (human) (UniProt Q9UM73)
[5] = molecular target: CAMK1 (human) (UniProt Q14012)
[6] = molecular target: CAMK1D (human) (UniProt Q8IU85)
Sequence of CAMK1D (human) (Q8IU85 whole entry, looked up): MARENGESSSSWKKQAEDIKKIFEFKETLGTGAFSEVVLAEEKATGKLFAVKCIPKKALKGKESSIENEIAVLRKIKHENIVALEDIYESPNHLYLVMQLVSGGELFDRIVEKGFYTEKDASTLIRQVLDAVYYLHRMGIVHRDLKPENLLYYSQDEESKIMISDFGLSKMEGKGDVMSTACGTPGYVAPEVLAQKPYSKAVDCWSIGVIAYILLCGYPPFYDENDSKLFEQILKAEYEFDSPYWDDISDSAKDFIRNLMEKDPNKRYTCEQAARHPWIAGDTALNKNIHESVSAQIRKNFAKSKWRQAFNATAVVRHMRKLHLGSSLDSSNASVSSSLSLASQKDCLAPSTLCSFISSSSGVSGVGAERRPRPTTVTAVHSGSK

[7] = molecular target: CAMK2B (human) (UniProt Q13554)
[8] = molecular target: CAMKK1 (human) (UniProt Q8N5S9)
Sequence of CAMKK1 (human) (Q8N5S9 whole entry, looked up): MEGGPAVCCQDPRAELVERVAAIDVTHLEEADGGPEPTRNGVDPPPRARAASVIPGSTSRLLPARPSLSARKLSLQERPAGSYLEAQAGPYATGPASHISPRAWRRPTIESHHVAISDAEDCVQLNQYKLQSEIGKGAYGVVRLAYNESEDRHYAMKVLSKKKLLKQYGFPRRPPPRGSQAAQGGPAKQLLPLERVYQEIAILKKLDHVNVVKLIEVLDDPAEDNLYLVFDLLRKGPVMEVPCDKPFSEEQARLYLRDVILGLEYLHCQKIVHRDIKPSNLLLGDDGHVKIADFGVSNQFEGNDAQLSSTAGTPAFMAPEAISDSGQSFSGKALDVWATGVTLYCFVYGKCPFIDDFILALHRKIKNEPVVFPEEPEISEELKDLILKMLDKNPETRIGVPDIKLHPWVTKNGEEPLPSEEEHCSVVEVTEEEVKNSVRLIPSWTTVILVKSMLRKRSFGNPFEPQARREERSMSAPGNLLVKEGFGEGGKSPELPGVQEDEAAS

[9] = molecular target: CDK1 CCNB1 (human) (UniProt P06493+P14635)
[10] = molecular target: CDK2 CCNE1 (human) (UniProt P24941+P24864)
Sequence of CDK2 CCNE1 (human) (P24864 whole entry, looked up, other chains not shown): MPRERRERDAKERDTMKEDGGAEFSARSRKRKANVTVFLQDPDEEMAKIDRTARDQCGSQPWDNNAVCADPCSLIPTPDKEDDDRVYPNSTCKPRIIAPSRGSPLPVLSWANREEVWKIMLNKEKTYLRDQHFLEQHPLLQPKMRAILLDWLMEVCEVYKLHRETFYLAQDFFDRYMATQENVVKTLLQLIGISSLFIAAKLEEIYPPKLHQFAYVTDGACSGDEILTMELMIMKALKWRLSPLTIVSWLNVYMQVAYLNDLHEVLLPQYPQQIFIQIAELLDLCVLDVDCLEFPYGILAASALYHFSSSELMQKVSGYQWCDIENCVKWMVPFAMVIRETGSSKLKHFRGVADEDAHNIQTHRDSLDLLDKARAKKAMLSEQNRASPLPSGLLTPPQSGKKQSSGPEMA

[11] = molecular target: CDK3 CCNE1 (human) (UniProt Q00526+P24864)
Sequence of CDK3 CCNE1 (human) (P24864 whole entry, looked up): as the sequence (P24864 whole entry, looked up, other chains not shown) above
Sequence of CDK3 CCNE1 (human) (Q00526 whole entry, looked up): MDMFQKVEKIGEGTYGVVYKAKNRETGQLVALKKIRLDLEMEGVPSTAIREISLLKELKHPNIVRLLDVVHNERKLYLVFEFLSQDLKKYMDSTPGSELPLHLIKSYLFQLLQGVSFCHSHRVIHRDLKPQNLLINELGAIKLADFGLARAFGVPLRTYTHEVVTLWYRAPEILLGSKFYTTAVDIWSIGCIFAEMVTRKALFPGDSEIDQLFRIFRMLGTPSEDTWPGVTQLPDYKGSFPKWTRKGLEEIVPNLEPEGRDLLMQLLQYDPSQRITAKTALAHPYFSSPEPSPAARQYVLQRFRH

[12] = molecular target: CDK7 CCNH MNAT1 (human) (UniProt P50613+P51948+P51946)
[13] = molecular target: CHUK (human) (UniProt O15111)
[14] = molecular target: CSNK1G1 (human) (UniProt Q9HCP0)
Sequence of CSNK1G1 (human) (Q9HCP0 whole entry, looked up): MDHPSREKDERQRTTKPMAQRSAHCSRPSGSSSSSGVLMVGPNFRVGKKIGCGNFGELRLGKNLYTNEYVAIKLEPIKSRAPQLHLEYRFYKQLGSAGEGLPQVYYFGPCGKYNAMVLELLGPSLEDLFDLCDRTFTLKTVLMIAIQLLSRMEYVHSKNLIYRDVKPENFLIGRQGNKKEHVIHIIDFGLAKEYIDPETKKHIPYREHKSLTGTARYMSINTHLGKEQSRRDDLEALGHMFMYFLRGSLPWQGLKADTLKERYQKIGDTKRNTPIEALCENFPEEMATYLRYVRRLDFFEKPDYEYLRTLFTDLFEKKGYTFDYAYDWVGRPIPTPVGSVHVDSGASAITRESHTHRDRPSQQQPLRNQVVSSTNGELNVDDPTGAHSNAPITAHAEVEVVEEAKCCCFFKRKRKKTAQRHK

[15] = molecular target: DYRK1A (human) (UniProt Q13627)
[16] = molecular target: EGFR (human) (UniProt P00533)
[17] = molecular target: EPHA7 (human) (UniProt Q15375)
[18] = molecular target: GRK5 (human) (UniProt P34947)
[19] = molecular target: GRK6 (human) (UniProt P43250)
[20] = molecular target: HIPK3 (human) (UniProt Q9H422)
[21] = molecular target: LCK (human) (UniProt P06239)
[22] = molecular target: LIMK1 (human) (UniProt P53667)
Sequence of LIMK1 (human) (P53667 whole entry, looked up): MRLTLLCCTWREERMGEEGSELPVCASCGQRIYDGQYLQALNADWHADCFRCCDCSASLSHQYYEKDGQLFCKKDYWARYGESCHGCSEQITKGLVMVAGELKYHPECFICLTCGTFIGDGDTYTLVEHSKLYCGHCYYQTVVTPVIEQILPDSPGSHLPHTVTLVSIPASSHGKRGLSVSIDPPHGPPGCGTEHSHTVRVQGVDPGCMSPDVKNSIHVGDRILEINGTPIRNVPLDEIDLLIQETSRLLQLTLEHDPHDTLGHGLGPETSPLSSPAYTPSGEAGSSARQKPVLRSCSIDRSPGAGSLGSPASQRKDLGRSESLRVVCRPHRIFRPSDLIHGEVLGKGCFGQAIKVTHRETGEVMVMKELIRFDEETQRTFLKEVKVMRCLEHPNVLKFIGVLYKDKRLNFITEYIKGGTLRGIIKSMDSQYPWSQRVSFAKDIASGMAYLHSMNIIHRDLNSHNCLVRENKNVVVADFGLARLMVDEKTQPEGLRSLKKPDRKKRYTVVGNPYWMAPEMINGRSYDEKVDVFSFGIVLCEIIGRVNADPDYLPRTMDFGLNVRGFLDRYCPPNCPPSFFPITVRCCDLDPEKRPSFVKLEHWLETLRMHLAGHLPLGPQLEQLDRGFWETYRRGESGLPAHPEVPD

[23] = molecular target: MAP4K4 (human) (UniProt O95819)
[24] = molecular target: MELK (human) (UniProt Q14680)
[25] = molecular target: MINK1 (human) (UniProt Q8N4C8)
[26] = molecular target: MKNK2 (human) (UniProt Q9HBH9)
[27] = molecular target: NEK2 (human) (UniProt P51955)
Sequence of NEK2 (human) (P51955 whole entry, looked up): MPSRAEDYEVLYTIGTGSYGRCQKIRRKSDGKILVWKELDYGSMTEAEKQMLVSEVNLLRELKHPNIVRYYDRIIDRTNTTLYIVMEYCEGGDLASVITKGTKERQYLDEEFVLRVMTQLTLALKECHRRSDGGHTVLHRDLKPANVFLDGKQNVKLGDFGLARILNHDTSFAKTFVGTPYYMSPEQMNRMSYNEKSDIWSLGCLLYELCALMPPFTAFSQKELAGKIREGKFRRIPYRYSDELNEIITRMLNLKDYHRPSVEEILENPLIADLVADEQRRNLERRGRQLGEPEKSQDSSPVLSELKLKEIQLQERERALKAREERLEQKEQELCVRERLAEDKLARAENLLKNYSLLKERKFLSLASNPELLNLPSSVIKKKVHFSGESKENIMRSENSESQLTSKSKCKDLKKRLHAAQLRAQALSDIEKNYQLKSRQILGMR

[28] = molecular target: NEK4 (human) (UniProt P51957)
[29] = molecular target: NTRK1 (human) (UniProt P04629)
[30] = molecular target: PDGFRA (human) (UniProt P16234)
[31] = molecular target: PDGFRB (human) (UniProt P09619)
[32] = molecular target: PRKCA (human) (UniProt P17252)
[33] = molecular target: PRKCG (human) (UniProt P05129)
[34] = molecular target: PRKCI (human) (UniProt P41743)
Sequence of PRKCI (human) (P41743 whole entry, looked up): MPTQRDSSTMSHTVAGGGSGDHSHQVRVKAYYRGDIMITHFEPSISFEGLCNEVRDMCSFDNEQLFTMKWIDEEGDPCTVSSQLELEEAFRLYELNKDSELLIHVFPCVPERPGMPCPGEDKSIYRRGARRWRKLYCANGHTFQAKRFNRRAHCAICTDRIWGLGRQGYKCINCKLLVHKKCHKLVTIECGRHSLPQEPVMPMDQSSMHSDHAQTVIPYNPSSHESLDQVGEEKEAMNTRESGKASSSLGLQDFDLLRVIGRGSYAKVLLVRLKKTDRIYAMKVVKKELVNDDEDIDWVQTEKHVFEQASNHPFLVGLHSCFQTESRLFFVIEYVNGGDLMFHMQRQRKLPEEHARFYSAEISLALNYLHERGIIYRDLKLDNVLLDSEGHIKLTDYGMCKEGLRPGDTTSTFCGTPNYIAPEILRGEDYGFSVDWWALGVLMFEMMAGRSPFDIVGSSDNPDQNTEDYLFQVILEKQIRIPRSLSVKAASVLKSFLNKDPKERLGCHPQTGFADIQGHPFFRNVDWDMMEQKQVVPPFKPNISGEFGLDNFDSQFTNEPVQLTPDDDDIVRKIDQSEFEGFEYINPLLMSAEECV

[35] = molecular target: PRKCZ (human) (UniProt Q05513)
[36] = molecular target: PRKD1 (human) (UniProt Q15139)
[37] = molecular target: PRKD3 (human) (UniProt O94806)
[38] = molecular target: SRMS (human) (UniProt Q9H3Y6)
[39] = molecular target: SRPK1 (human) (UniProt Q96SB4)
[40] = molecular target: STK25 (human) (UniProt O00506)
Sequence of STK25 (human) (O00506 whole entry, looked up): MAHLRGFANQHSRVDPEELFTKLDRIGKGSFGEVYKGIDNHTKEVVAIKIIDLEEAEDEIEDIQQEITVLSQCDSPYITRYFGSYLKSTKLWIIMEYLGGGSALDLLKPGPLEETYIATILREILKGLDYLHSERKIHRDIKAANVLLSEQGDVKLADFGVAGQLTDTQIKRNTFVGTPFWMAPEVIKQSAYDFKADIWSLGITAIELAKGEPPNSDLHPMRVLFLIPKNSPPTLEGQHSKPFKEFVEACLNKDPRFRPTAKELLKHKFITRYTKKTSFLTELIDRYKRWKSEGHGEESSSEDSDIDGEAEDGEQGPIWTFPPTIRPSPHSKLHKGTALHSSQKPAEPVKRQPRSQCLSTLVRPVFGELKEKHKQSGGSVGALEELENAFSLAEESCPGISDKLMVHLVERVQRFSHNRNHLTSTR

[41] = molecular target: TGFBR1 (human) (UniProt P36897)
Sequence of TGFBR1 (human) (P36897 whole entry, looked up): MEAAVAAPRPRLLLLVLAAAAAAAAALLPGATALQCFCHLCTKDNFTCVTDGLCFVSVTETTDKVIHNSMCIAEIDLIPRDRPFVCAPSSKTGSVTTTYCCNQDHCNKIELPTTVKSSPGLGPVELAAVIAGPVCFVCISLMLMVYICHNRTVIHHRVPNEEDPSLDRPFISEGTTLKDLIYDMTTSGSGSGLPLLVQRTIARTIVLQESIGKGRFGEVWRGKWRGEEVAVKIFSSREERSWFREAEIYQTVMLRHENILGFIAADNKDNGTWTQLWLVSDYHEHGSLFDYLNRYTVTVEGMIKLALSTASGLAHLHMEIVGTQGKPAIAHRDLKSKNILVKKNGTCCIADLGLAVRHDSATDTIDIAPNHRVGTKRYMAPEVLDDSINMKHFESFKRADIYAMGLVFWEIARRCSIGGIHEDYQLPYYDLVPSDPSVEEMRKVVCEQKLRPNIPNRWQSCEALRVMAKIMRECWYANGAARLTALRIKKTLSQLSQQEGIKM

[42] = molecular target: WNK3 (human) (UniProt Q9BYP7)

Which results are given for `c1ccc(-c2n[nH]cc2-c2ccnc3ccccc23)nc1`?
residual activity [1]: 106%; residual activity [2]: 101%; residual activity [3]: 92.6%; residual activity [4]: 111%; residual activity [5]: 96.1%; residual activity [6]: 100%; residual activity [7]: 97.2%; residual activity [8]: 109%; residual activity [9]: 106%; residual activity [10]: 91.3%; residual activity [11]: 94.2%; residual activity [12]: 104%; residual activity [13]: 94.2%; residual activity [14]: 92.2%; residual activity [15]: 90.9%; residual activity [16]: 81.8%; residual activity [17]: 91.4%; residual activity [18]: 109%; residual activity [19]: 94.6%; residual activity [20]: 97%; residual activity [21]: 91.7%; residual activity [22]: 103%; residual activity [23]: 48.3%; residual activity [24]: 93.3%; residual activity [25]: 84.1%; residual activity [26]: 81.9%; residual activity [27]: 97%; residual activity [28]: 95.8%; residual activity [29]: 102%; residual activity [30]: 98.1%; residual activity [31]: 106%; residual activity [32]: 98.5%; residual activity [33]: 117%; residual activity [34]: 99%; residual activity [35]: 115%; residual activity [36]: 63%; residual activity [37]: 56.1%; residual activity [38]: 105%; residual activity [39]: 98.4%; residual activity [40]: 96.9%; residual activity [41]: 41.6%

What does the source list for `Nc1ncnc2c1c(-c1ccc(Oc3ccccc3)cc1)cn2C1CCCC1`?
residual activity [1]: 95.4%; residual activity [2]: 97.8%; residual activity [3]: 98.2%; residual activity [4]: 80.6%; residual activity [5]: 100%; residual activity [6]: 50.3%; residual activity [7]: 102%; residual activity [8]: 99.1%; residual activity [9]: 110%; residual activity [10]: 91.3%; residual activity [11]: 92.6%; residual activity [12]: 96.8%; residual activity [13]: 99.7%; residual activity [14]: 90.8%; residual activity [15]: 99.1%; residual activity [17]: 98.3%; residual activity [18]: 102%; residual activity [19]: 92.6%; residual activity [20]: 116%; residual activity [21]: 1.12%; residual activity [22]: 95.7%; residual activity [23]: 98.8%; residual activity [24]: 101%; residual activity [25]: 105%; residual activity [26]: 94.9%; residual activity [27]: 88.5%; residual activity [28]: 92.1%; residual activity [29]: 94.3%; residual activity [30]: 65%; residual activity [31]: 73.4%; residual activity [32]: 106%; residual activity [33]: 96.1%; residual activity [34]: 103%; residual activity [35]: 107%; residual activity [36]: 96.2%; residual activity [37]: 89.4%; residual activity [38]: 14.2%; residual activity [39]: 105%; residual activity [40]: 113%; residual activity [41]: 96.1%; residual activity [42]: 85.2%

What does the source list for `N#CC(C#N)=C(N)/C(C#N)=C/c1ccc(O)cc1`?
residual activity [1]: 93.8%; residual activity [2]: 104%; residual activity [3]: 95.8%; residual activity [4]: 109%; residual activity [5]: 97.2%; residual activity [6]: 98.9%; residual activity [7]: 93.3%; residual activity [8]: 104%; residual activity [9]: 111%; residual activity [10]: 97%; residual activity [11]: 96.8%; residual activity [12]: 91.2%; residual activity [13]: 94%; residual activity [14]: 93.4%; residual activity [15]: 95.9%; residual activity [17]: 90.5%; residual activity [18]: 113%; residual activity [19]: 107%; residual activity [20]: 102%; residual activity [21]: 95.1%; residual activity [22]: 89.9%; residual activity [23]: 91.2%; residual activity [24]: 101%; residual activity [25]: 97.7%; residual activity [26]: 79.1%; residual activity [27]: 102%; residual activity [28]: 93.3%; residual activity [29]: 102%; residual activity [30]: 97.8%; residual activity [31]: 98.8%; residual activity [32]: 97.4%; residual activity [33]: 105%; residual activity [34]: 97.4%; residual activity [35]: 105%; residual activity [36]: 101%; residual activity [37]: 91.9%; residual activity [38]: 107%; residual activity [39]: 100%; residual activity [40]: 90.4%; residual activity [41]: 93%; residual activity [42]: 99.8%
